Assay results published in BigSolDB 2.1.

In the case of `O=c1ccc(-c2ccccc2)n[nH]1`, the solubility (mole fraction) (in ethanol, 278.15 K) is reported as 0.00242, the solubility (mole fraction) (in ethanol, 283.15 K) is reported as 0.00289 and the solubility (mole fraction) (in ethanol, 288.15 K) is reported as 0.00342. For the same molecule, the solubility (mole fraction) (in ethanol, 293.15 K) was 0.00402, the solubility (mole fraction) (in ethanol, 298.15 K) was 0.00466 and the solubility (mole fraction) (in ethanol, 303.15 K) was 0.00547. For the same molecule, the solubility (mole fraction) (in ethanol, 308.15 K) was 0.00637, the solubility (mole fraction) (in ethanol, 313.15 K) was 0.00736 and the solubility (mole fraction) (in ethanol, 318.15 K) was 0.00846. The solubility (mole fraction) (in ethylene glycol, 278.15 K) was 0.00304, the solubility (mole fraction) (in ethylene glycol, 283.15 K) was 0.00369 and the solubility (mole fraction) (in ethylene glycol, 288.15 K) was 0.00445. It also gave a solubility (mole fraction) (in ethylene glycol, 293.15 K) of 0.00536, a solubility (mole fraction) (in ethylene glycol, 298.15 K) of 0.00646 and a solubility (mole fraction) (in ethylene glycol, 303.15 K) of 0.0076. The solubility (mole fraction) (in ethylene glycol, 308.15 K) was 0.00905, the solubility (mole fraction) (in ethylene glycol, 313.15 K) was 0.0106 and the solubility (mole fraction) (in ethylene glycol, 318.15 K) was 0.0124. The solubility (mole fraction) (in isopropanol, 278.15 K) was 0.00411, the solubility (mole fraction) (in isopropanol, 283.15 K) was 0.00489 and the solubility (mole fraction) (in isopropanol, 288.15 K) was 0.00579. It also gave a solubility (mole fraction) (in isopropanol, 293.15 K) of 0.00684, a solubility (mole fraction) (in isopropanol, 298.15 K) of 0.00795 and a solubility (mole fraction) (in isopropanol, 303.15 K) of 0.0094. For the same molecule, the solubility (mole fraction) (in isopropanol, 308.15 K) was 0.0109, the solubility (mole fraction) (in isopropanol, 313.15 K) was 0.0126 and the solubility (mole fraction) (in isopropanol, 318.15 K) was 0.0142. It also gave a solubility (mole fraction) (in methanol, 278.15 K) of 0.00124, a solubility (mole fraction) (in methanol, 283.15 K) of 0.00153 and a solubility (mole fraction) (in methanol, 288.15 K) of 0.00183. For the same molecule, the solubility (mole fraction) (in methanol, 293.15 K) was 0.0022, the solubility (mole fraction) (in methanol, 298.15 K) was 0.00265 and the solubility (mole fraction) (in methanol, 303.15 K) was 0.00309. It also gave a solubility (mole fraction) (in methanol, 308.15 K) of 0.00365, a solubility (mole fraction) (in methanol, 313.15 K) of 0.00432 and a solubility (mole fraction) (in methanol, 318.15 K) of 0.00502. The solubility (mole fraction) (in water, 278.15 K) was 2.53e-06, the solubility (mole fraction) (in water, 283.15 K) was 3.14e-06 and the solubility (mole fraction) (in water, 288.15 K) was 3.86e-06. It also gave a solubility (mole fraction) (in water, 293.15 K) of 4.72e-06, a solubility (mole fraction) (in water, 298.15 K) of 5.84e-06 and a solubility (mole fraction) (in water, 303.15 K) of 7.08e-06. For the same molecule, the solubility (mole fraction) (in water, 308.15 K) was 8.51e-06, the solubility (mole fraction) (in water, 313.15 K) was 1.02e-05 and the solubility (mole fraction) (in water, 318.15 K) was 1.22e-05.
